Experimental data from ChEMBL document CHEMBL1201862, “PubChem BioAssay data set” (2004).
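All cell lines were grown in 96-well plates and treated with compound for 48 hours. Abbreviation: GI50, concentration required for 50% inhibition of growth.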 The source made the active and inactive calls. Rule as the data show it: active = GI50 up to about 1.1 µM and inactive = higher.

Key:
Experiment in all cases: NCI anticancer screen, dose series, 48 h
ACHN = system: ACHN
M14 = system: M14
SN12C = system: SN12C
Malme-3M = system: Malme-3M
HL-60 = system: HL-60
SF-539 = system: SF-539
TK-10 = system: TK-10
U-251 = system: U-251
HCT-116 = system: HCT-116
MOLT-4 = system: MOLT-4
NCI-H23 = system: NCI-H23
NCI-H226 = system: NCI-H226
HT-29 = system: HT-29
SNB-19 = system: SNB-19
HOP-92 = system: HOP-92
CCRF-CEM = system: CCRF-CEM
COLO 205 = system: COLO 205
RPMI-8226 = system: RPMI-8226
OVCAR-8 = system: OVCAR-8
EKVX = system: EKVX

SMILES	GI50 (ACHN)	GI50 (M14)	GI50 (SN12C)	GI50 (Malme-3M)	GI50 (HL-60)	GI50 (SF-539)	GI50 (TK-10)	GI50 (U-251)	GI50 (HCT-116)	GI50 (MOLT-4)	GI50 (NCI-H23)	GI50 (NCI-H226)	GI50 (HT-29)	GI50 (SNB-19)	GI50 (HOP-92)	GI50 (CCRF-CEM)	GI50 (COLO 205)	GI50 (RPMI-8226)	GI50 (OVCAR-8)	GI50 (EKVX)
CN1CCN(c2ccc3[nH]c(-c4ccc5[nH]c(-c6ccc(O)cc6)nc5c4)nc3c2)CC1	281 µM (inactive)	149 µM (inactive)	127 µM (inactive)	2.64 µM (inactive)	11.9 µM (inactive)	54.8 µM (inactive)	705 µM (inactive)	179 µM (inactive)	13.5 µM (inactive)	29.1 µM (inactive)	240 µM (inactive)	170 µM (inactive)	92.7 µM (inactive)	391 µM (inactive)	33.7 µM (inactive)	–	–	–	–	–
CN(C)c1ncnc2c1ncn2CCn1cnc2c(N(C)C)ncnc21	> 100 µM (inactive)	> 100 µM (inactive)	> 100 µM (inactive)	> 100 µM (inactive)	> 100 µM (inactive)	> 100 µM (inactive)	> 100 µM (inactive)	> 100 µM (inactive)	> 100 µM (inactive)	< 0.01 µM (active)	> 100 µM (inactive)	–	> 100 µM (inactive)	> 100 µM (inactive)	> 100 µM (inactive)	> 100 µM (inactive)	> 100 µM (inactive)	> 100 µM (inactive)	> 100 µM (inactive)	> 100 µM (inactive)
O=C(CNc1ccccc1Cl)Nn1c(-c2ccccc2)nc2ccccc2c1=O	37.4 µM (inactive)	> 10 µM (inactive)	34.4 µM (inactive)	–	22.4 µM (inactive)	21.6 µM (inactive)	44 µM (inactive)	17.4 µM (inactive)	25.2 µM (inactive)	13.2 µM (inactive)	16.4 µM (inactive)	28.5 µM (inactive)	> 10 µM (inactive)	> 10 µM (inactive)	13.4 µM (inactive)	13.4 µM (inactive)	17.9 µM (inactive)	28.7 µM (inactive)	40.7 µM (inactive)	18.6 µM (inactive)
CCCCCCCCCOC(=S)NC	19.3 µM (inactive)	21.1 µM (inactive)	18.4 µM (inactive)	20.6 µM (inactive)	15.4 µM (inactive)	17.6 µM (inactive)	21.3 µM (inactive)	16.9 µM (inactive)	–	17.1 µM (inactive)	16.7 µM (inactive)	–	20.6 µM (inactive)	30.8 µM (inactive)	18.2 µM (inactive)	19.7 µM (inactive)	22.8 µM (inactive)	20 µM (inactive)	18.8 µM (inactive)	28.1 µM (inactive)
COC(=O)CSC1CC(=O)c2c(Cl)sc(Cl)c21 (stereo unspecified)	> 100 µM (inactive)	> 100 µM (inactive)	> 100 µM (inactive)	> 100 µM (inactive)	–	–	> 100 µM (inactive)	> 100 µM (inactive)	> 100 µM (inactive)	> 100 µM (inactive)	> 100 µM (inactive)	–	> 100 µM (inactive)	> 100 µM (inactive)	> 100 µM (inactive)	> 100 µM (inactive)	> 100 µM (inactive)	–	> 100 µM (inactive)	> 100 µM (inactive)
O=[N+]([O-])c1cccc(/C=N\NS(=O)(=O)c2ccc(Cl)cc2)c1O	98.6 µM (inactive)	90.8 µM (inactive)	> 100 µM (inactive)	> 100 µM (inactive)	46.9 µM (inactive)	54.2 µM (inactive)	> 100 µM (inactive)	55.5 µM (inactive)	50.4 µM (inactive)	47.5 µM (inactive)	44.3 µM (inactive)	–	> 100 µM (inactive)	> 100 µM (inactive)	42.6 µM (inactive)	31.7 µM (inactive)	69.8 µM (inactive)	55.5 µM (inactive)	79.4 µM (inactive)	> 100 µM (inactive)
N#Cc1ccc(OCc2nc3cc(C(F)(F)F)ccc3nc2-c2ccccc2)cc1	> 100 µM (inactive)	> 100 µM (inactive)	> 100 µM (inactive)	> 100 µM (inactive)	3.53 µM (inactive)	> 100 µM (inactive)	> 100 µM (inactive)	> 100 µM (inactive)	> 100 µM (inactive)	62.1 µM (inactive)	> 100 µM (inactive)	–	7.93 µM (inactive)	> 100 µM (inactive)	> 100 µM (inactive)	57.7 µM (inactive)	> 100 µM (inactive)	> 100 µM (inactive)	> 100 µM (inactive)	41.2 µM (inactive)
O=S(=O)(NNc1ccccc1)c1ccccc1	0.662 µM (active)	0.671 µM (active)	4.49 µM (inactive)	–	1.66 µM (inactive)	32.7 µM (inactive)	> 100 µM (inactive)	16.2 µM (inactive)	13.2 µM (inactive)	26.5 µM (inactive)	25.5 µM (inactive)	4.12 µM (inactive)	11.5 µM (inactive)	39.7 µM (inactive)	19.1 µM (inactive)	14.3 µM (inactive)	8.99 µM (inactive)	3.71 µM (inactive)	28.5 µM (inactive)	14.4 µM (inactive)
O=C(Nc1ccccc1)N(C1=NCC(CI)S1)c1ccc(F)c(F)c1 (stereo unspecified)	49.4 µM (inactive)	–	81.5 µM (inactive)	55.7 µM (inactive)	21.4 µM (inactive)	33.2 µM (inactive)	44 µM (inactive)	54.1 µM (inactive)	29.1 µM (inactive)	19.5 µM (inactive)	29.2 µM (inactive)	–	27 µM (inactive)	> 100 µM (inactive)	7.03 µM (inactive)	19.3 µM (inactive)	56.1 µM (inactive)	21.2 µM (inactive)	47.8 µM (inactive)	> 100 µM (inactive)
C=C(Cl)COC(=O)Nc1cccc(Cl)c1	34.9 µM (inactive)	35.4 µM (inactive)	33.8 µM (inactive)	–	24.4 µM (inactive)	54.8 µM (inactive)	60 µM (inactive)	34.4 µM (inactive)	27 µM (inactive)	57.5 µM (inactive)	30.4 µM (inactive)	44.8 µM (inactive)	33.3 µM (inactive)	35.6 µM (inactive)	22.7 µM (inactive)	28.2 µM (inactive)	31.7 µM (inactive)	39.4 µM (inactive)	32.6 µM (inactive)	22.5 µM (inactive)
COc1cccc2c1-c1ccccc1[C@H](Nc1ccccc1)[C@@]2(C)O	9.57 µM (inactive)	3.86 µM (inactive)	4.55 µM (inactive)	7.93 µM (inactive)	5.42 µM (inactive)	2.77 µM (inactive)	8.87 µM (inactive)	4.84 µM (inactive)	4.11 µM (inactive)	7.28 µM (inactive)	7.67 µM (inactive)	3.4 µM (inactive)	3.78 µM (inactive)	5.81 µM (inactive)	11.2 µM (inactive)	1.42 µM (inactive)	3.1 µM (inactive)	–	10.4 µM (inactive)	11 µM (inactive)
CC(C)(C)OC(=O)NC1CCCC1C(O)(C1=CCCC1)C1=CCCC1 (stereo unspecified)	> 100 µM (inactive)	> 100 µM (inactive)	> 100 µM (inactive)	–	> 100 µM (inactive)	–	–	> 100 µM (inactive)	> 100 µM (inactive)	> 100 µM (inactive)	> 100 µM (inactive)	> 100 µM (inactive)	76.2 µM (inactive)	> 100 µM (inactive)	> 100 µM (inactive)	> 100 µM (inactive)	> 100 µM (inactive)	> 100 µM (inactive)	> 100 µM (inactive)	–
Cc1nc2ccc(Cl)cc2c(-n2ccnc2)c1CCn1ccnc1	15.7 µM (inactive)	27.8 µM (inactive)	34 µM (inactive)	31.1 µM (inactive)	23.7 µM (inactive)	61.4 µM (inactive)	30.2 µM (inactive)	40.5 µM (inactive)	23.8 µM (inactive)	–	27.1 µM (inactive)	16.4 µM (inactive)	17.3 µM (inactive)	53.7 µM (inactive)	15.9 µM (inactive)	18 µM (inactive)	18 µM (inactive)	–	1.75 µM (inactive)	–
C/C(=N\N(C)C)c1sc(-n2nc(-c3ccccc3)cc2-c2ccccc2)nc1C	> 100 µM (inactive)	> 100 µM (inactive)	> 100 µM (inactive)	> 100 µM (inactive)	> 100 µM (inactive)	> 100 µM (inactive)	72.8 µM (inactive)	91.6 µM (inactive)	> 100 µM (inactive)	84.3 µM (inactive)	> 100 µM (inactive)	> 100 µM (inactive)	> 100 µM (inactive)	> 100 µM (inactive)	61.9 µM (inactive)	> 100 µM (inactive)	> 100 µM (inactive)	–	> 100 µM (inactive)	8.22 µM (inactive)
CCCCCCCCCCCCCCCCOCC(COP(=O)(O)OCC1OC(n2cc(CC)c(=O)[nH]c2=O)CC1O)OC(=O)CCCCCCCCCCCCCCC (stereo unspecified)	> 100 µM (inactive)	> 100 µM (inactive)	> 100 µM (inactive)	–	52 µM (inactive)	> 100 µM (inactive)	> 100 µM (inactive)	> 100 µM (inactive)	> 100 µM (inactive)	> 100 µM (inactive)	> 100 µM (inactive)	> 100 µM (inactive)	> 100 µM (inactive)	> 100 µM (inactive)	> 100 µM (inactive)	> 100 µM (inactive)	> 100 µM (inactive)	> 100 µM (inactive)	> 100 µM (inactive)	> 100 µM (inactive)
